Read-outs that look alike come from different tables or passages of the source.
Experiments:
[1] = test system: EHV-4 405/76 reference strain; experiment: RTCA; assay type: cell-based, Equid herpesvirus 4; settings: area under normalized Cell Index curves, 0-120 hpi, EHV-4-infected E. Derm cells
[2] = in vitro; settings: horse
[3] = test system: EHV-4 405/76 reference strain; experiment: microbe, parasite or virus in culture
[4] = in vitro; settings: horse; remark: listed apart in the source
[5] = test system: EHV-4 405/76 reference strain; experiment: microbe, parasite or virus in culture; remark: listed apart in the source
[6] = test system: EHV-4 405/76 reference strain; settings: ratio of CC50 to EC50 obtained by qPCR
[7] = test system: EHV-4 405/76 reference strain; settings: for Si (CC50/EC50, RTCA): ratio of CC50 to EC50 obtained by RTCA; for CIT50 increase: RTCA, EHV-4-infected E. Derm cells
[8] = Cytotoxicity by CellTiter-Glo; settings: horse
[9] = Cytotoxicity by impedance using RTCA; settings: horse, E. Derm cells
[10] = Equid alphaherpesvirus 4, read-out: qPCR EC50 (µM ± S.D)
[11] = Equid alphaherpesvirus 4, read-out: qPCR EC50 (µg/mL ± S.D)
[12] = Equid alphaherpesvirus 4, read-out: RTCA EC50 (µM ± S.D)
[13] = Equid alphaherpesvirus 4, read-out: RTCA EC50 (µg/mL ± S.D)

SMILES | AUCn ([1]; 0.4 µM) | AUCn ([1]; 2 µM) | AUCn ([1]; 10 µM) | AUCn ([1]; 50 µM) | further results
CCCCCOC(=O)Nc1nc(=O)n([C@@H]2O[C@H](C)[C@@H](O)[C@H]2O)cc1F [Capecitabine] | 35.92 | 36.42 | 36.13 | 33.97 | 
O=c1[nH]cc(F)c(=O)[nH]1 [5-fluorouracil] | 39.89 | 31.41 | 31.13 | 36.75 | 
Nc1nc(=O)n([C@@H]2CS[C@H](CO)O2)cc1F [Emtricitabine] | 36.81 | 35.47 | 34.12 | 37.28 | 
O=C(N/N=C/c1ccc(O)c(O)c1)c1cc2ccccc2cc1O [Dynasore] | 13.10 | 13.81 | 18.85 | 23.18 | 
CC(=O)OCC(CCn1cnc2cnc(N)nc21)COC(C)=O [Famciclovir] | 39.12 | 34.29 | 36.03 | 37.57 | 
CC(C)[C@H](N)C(=O)OCCOCn1cnc2c(=O)[nH]c(N)nc21 [Valaciclovir] | 33.27 | 28.12 | 27.99 | 42.38 | 
C[C@H](CCCC(C)(C)O)[C@H]1CC[C@H]2[C@@H]3CC=C4C[C@@H](O)CC[C@]4(C)[C@H]3CC[C@]12C [25-hydroxycholesterol] | 39.29 | 34.81 | 29.79 | 31.86 | 
O=c1[nH]c(=O)n([C@H]2C[C@H](O)[C@@H](CO)O2)cc1/C=C/Br [Brivudine] | 28.13 | 30.37 | 31.74 | 36.82 | 
CCC(C)(C)C(=O)O[C@H]1C[C@@H](C)C=C2C=C[C@H](C)[C@H](CC[C@@H]3C[C@@H](O)CC(=O)O3)[C@H]21 [Simvastatin] | 34.65 | 32.56 | 24.99 | 20.58 | 
C[C@@]1(O)[C@H](O)[C@@H](CO)O[C@H]1n1ccc(N)nc1=O [2′-C-methylcytidine] | 37.52 | 35.13 | 26.93 | 30.32 | 
CCOC(=O)c1c(CSc2ccccc2)n(C)c2cc(Br)c(O)c(CN(C)C)c12 [Arbidol] | 31.88 | 39.33 | 37.59 | 35.06 | 
Nc1nc(O)c2ncn(COC(CO)CO)c2n1 [Ganciclovir] | 57.9 | 74.3 | 116.3 | 138.7 | CC50 [2]: > 50 µM; EC50 [3, 10]: 1.32 ± 1.06 µM; EC50 [3, 11]: 0.34 ± 0.27 µg/mL; CC50 [4]: > 50 µM; EC50 [5, 12]: 4.05 ± 0.22 µM; EC50 [5, 13]: 1.03 ± 0.06 µg/mL; SI (CC50 CellTiter-Glo/EC50 qPCR) [6]: >37.88; Si (CC50/EC50, RTCA) [7]: >12.35
CC[C@H](C)C(=O)O[C@H]1C[C@H](O)C=C2C=C[C@H](C)[C@H](CC[C@@H](O)C[C@@H](O)CC(=O)O)[C@H]21 [Pravastatin] | 45.23 | 36.52 | 37.85 | 30.29 | 
C[C@@]1(CO)[C@H](O)CC[C@@]2(C)[C@H]1CC[C@H]1C[C@@H]3C[C@@]12CC[C@]3(O)CO [Aphidicolin] | 27.44 | 81.72 | 106.29 |  | EC50 [3, 10]: 0.31 ± 0.09 µM; EC50 [3, 11]: 0.11 ± 0.03 µg/mL; EC50 [5, 12]: 2.16 ± 0.18 µM; CC50 [8]: > 50 µM; SI (CC50 CellTiter-Glo/EC50 qPCR) [6]: >161.29; CIT50 increase ([7]; 1.25 µM): 7.48 ± 2.69 h; CIT50 increase ([7]; 2.5 µM): 22.43 ± 4.89 h; Si (CC50/EC50, RTCA) [7]: >23.15; CC50 [9]: > 50 µM
Nc1ccn(C[C@@H](CO)OCP(=O)(O)O)c(=O)n1 [Cidofovir] | 38.54 | 42.07 | 40.56 | 59.40 | EC50 [3, 10]: 7.99 ± 3.38 µM; EC50 [3, 11]: 2.23 ± 0.94 µg/mL; EC50 [5, 12]: 12.6 ± 4.32 µM; EC50 [5, 13]: 3.5 ± 1.21 µg/mL; CC50 ([8]; E. Derm cells): > 50 µM; SI (CC50 CellTiter-Glo/EC50 qPCR) [6]: >6.26; Si (CC50/EC50, RTCA) [7]: >3.98; CC50 [9]: > 50 µM
CC(C)(C)C(=O)OCOP(=O)(COCCn1cnc2c(N)ncnc21)OCOC(=O)C(C)(C)C [Adefovir dipivoxil] | 99.92 | 93.75 | 73.47 | 39.70 | 
Nc1ncnc2c1ncn2[C@@H]1O[C@H](CO)[C@@H](O)[C@@H]1O [Vidarabine] | 41.3 | 35.7 | 48.7 | 71.5 | CC50 [2]: > 50 µM; EC50 [3, 10]: 13.7 ± 1.92 µM; EC50 [3, 11]: 3.91 ± 0.55 µg/mL; CC50 [4]: > 50 µM; EC50 [5, 12]: 17 ± 4.5 µM; EC50 [5, 13]: 4.85 ± 1.28 µg/mL; Si (CC50/EC50, RTCA) [7]: >2.94
Nc1nc2c(ncn2CCC(CO)CO)c(=O)[nH]1 [Penciclovir] | 36.54 | 33.23 | 30.15 | 42.37 | 
